In general, IC50 refers to the concentration at which inhibition is half-maximal. A lower IC50 goes with greater potency in that assay.

SMILES strings stand for the structures. Counter-ions that a name gives are not always drawn.

Sequence of menin/MLL (terbium chelate-labeled menin, FITC-MBM1 peptide) (O00255 other isoform, or with tags, fused parts or gaps): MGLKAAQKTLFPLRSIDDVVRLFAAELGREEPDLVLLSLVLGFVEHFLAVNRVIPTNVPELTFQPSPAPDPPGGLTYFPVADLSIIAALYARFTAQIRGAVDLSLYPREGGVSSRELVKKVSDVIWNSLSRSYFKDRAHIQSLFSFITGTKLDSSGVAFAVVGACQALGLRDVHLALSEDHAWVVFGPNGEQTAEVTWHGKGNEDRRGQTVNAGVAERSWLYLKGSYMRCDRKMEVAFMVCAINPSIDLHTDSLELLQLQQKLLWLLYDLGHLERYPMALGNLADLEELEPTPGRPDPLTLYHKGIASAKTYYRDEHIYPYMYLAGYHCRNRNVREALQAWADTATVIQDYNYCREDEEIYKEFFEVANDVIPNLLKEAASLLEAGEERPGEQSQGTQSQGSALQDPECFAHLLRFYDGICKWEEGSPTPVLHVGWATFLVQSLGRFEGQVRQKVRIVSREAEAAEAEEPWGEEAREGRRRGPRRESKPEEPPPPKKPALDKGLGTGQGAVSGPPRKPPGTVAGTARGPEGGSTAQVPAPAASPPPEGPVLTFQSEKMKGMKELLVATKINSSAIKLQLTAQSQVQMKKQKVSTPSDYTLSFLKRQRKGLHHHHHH

The first experiment addresses menin/MLL (terbium chelate-labeled menin, FITC-MBM1 peptide) (Homo sapiens (Human), UniProt O00255). The experiment is described as follows: Menin/MLL homogenous time-resolved fluorescence (HTRF) assay.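 Also: IC50 from percent inhibition of HTRF signal, normalized between wells without competitor and wells with a saturating competitor that displaces FITC-MBM1 from His-tagged menin.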 The class given is binding. As to conditions: HTRF-30 min incubation IC50, 30 min incubation. On the technique in general: Time-resolved FRET reads energy transfer from a long-lived donor to a nearby acceptor.
In the case of `CCN(C(=O)c1cc(F)ccc1Oc1nncnc1N1CCC2(C1)CN([C@H](C[C@@H](C)CN(C)CCOC)C(C)C)C2)C(C)C` (single isomer, unassigned) [Compound 240, N-ethyl-5-fluoro-N-isopropyl-2-((5-(2-((3*R,5*R)-6-((2-methoxyethyl)(methyl)amino)-2,5-dimethylhexan-3-yl)-2,6-diazaspiro[3.4]octan-6-yl)-1,2,4-triazin-6-yl)oxy)benzamide fumarate], the IC50 was found to be 12.3 nM.

As to `CCN(C(=O)c1cc(F)ccc1Oc1nnc(OC)nc1N1CCC2(C1)CN([C@H](CCCN)C(C)C)C2)C(C)C` [Compound 407, (R)-2-((5-(2-(6-amino-2-methylhexan-3-yl)-2,6-diazaspiro[3.4]octan-6-yl)-3-methoxy-1,2,4-triazin-6-yl)oxy)-N-ethyl-5-fluoro-N-isopropylbenzamide formate], 0.086 nM corresponded to half-maximal inhibition (IC50).

`CCN(C(=O)c1cc(F)ccc1Oc1nncnc1N1CCC2(C1)CN([C@@H](C[C@@H](O)CN(C)C(C)C)C(C)C)C2)C(C)C` (single isomer, unassigned) [Compound 326, N-ethyl-5-fluoro-2-((5-(2-((3*S,5*R)-5-hydroxy-6-(isopropyl(methyl)amino)-2-methylhexan-3-yl)-2,6-diazaspiro[3.4]octan-6-yl)-1,2,4-triazin-6-yl)oxy)-N-isopropylbenzamide fumarate] registered a 50% inhibitory concentration (IC50) of 18.5 nM.

For the molecule `CCN(C)C[C@@H](O)C[C@@H](C(C)C)N1CC2(CCN(c3ncnnc3Oc3ccc(F)cc3C(=O)N(C(C)C)C(C)C)C2)C1` (single isomer, unassigned) [Compound 392, 2-((5-(2-((3*S,5*S)-6-(ethyl(methyl)amino)-5-hydroxy-2-methylhexan-3-yl)-2,6-diazaspiro[3.4]octan-6-yl)-1,2,4-triazin-6-yl)oxy)-5-fluoro-N,N-diisopropylbenzamide fumarate], half-maximal inhibition (IC50) was put at 10.3 nM.

`CCN(CC)C[C@@H](O)C[C@H](C(C)C)N1CC2(CCN(c3ncnnc3Oc3ccc(F)cc3C(=O)N(CC)C(C)C)C2)C1` (single isomer, unassigned) [Compound 337, 2-(5-(2-((3*R,5*S)-6-(diethylamino)-5-hydroxy-2-methylhexan-3-yl)-2,6-diazaspiro[3.4]octan-6-yl)-1,2,4-triazin-6-yl)oxy)-N-ethyl-5-fluoro-N-isopropylbenzamide fumarate] gave an IC50 of 4.57 nM.

For the molecule `CCN(C(=O)c1cc(F)ccc1Oc1nncnc1N1CCC2(C1)CN([C@@H](C[C@H](O)CN(C)CCOC)C(C)C)C2)C(C)C` (single isomer, unassigned) [Compound 353, N-ethyl-5-fluoro-2-((5-(2-((3*S,5S)-5-hydroxy-6-((2-methoxyethyl)(methyl)amino)-2-methylhexan-3-yl)-2,6-diazaspiro[3.4]octan-6-yl)-1,2,4-triazin-6-yl)oxy)-N-isopropylbenzamide fumarate], the IC50 came to 4.19 nM.

Consider `CCN(C)C[C@H](C[C@@H](C(C)C)N1CC2(CCN(c3ncnnc3Oc3ccc(F)cc3C(=O)N(CC)C(C)C)C2)C1)OC` (single isomer, unassigned) [Compound 379, N-ethyl-2-((5-(2-((3*S,5*S)-6-(ethyl(methyl)amino)-5-methoxy-2-methylhexan-3-yl)-2,6-diazaspiro[3.4]octan-6-yl)-1,2,4-triazin-6-yl)oxy)-5-fluoro-N-isopropylbenzamide], for which the IC50 amounted to 14.2 nM.

For the molecule `CCN(C(=O)c1cc(F)ccc1Oc1nncnc1N1CCC2(C1)CN([C@@H](C[C@@H](O)CN(C)CCOC)C(C)C)C2)C(C)C` (single isomer, unassigned) [Compound 357, N-ethyl-5-fluoro-2-((5-(2-((3*S,5R)-5-hydroxy-6-((2-methoxyethyl)(methyl)amino)-2-methylhexan-3-yl)-2,6-diazaspiro[3.4]octan-6-yl)-1,2,4-triazin-6-yl)oxy)-N-isopropylbenzamide fumarate], half-maximal inhibition (IC50) was put at 7.77 nM.

In the case of `CC(C)[C@H](C[C@@H](O)CN(C)C)N1CC2(CCN(c3ncnnc3Oc3ccc(F)cc3C(=O)N(C(C)C)C(C)C)C2)C1` (single isomer, unassigned) [Compound 370, 2-((5-(2-((3*S,5*R)-6-(dimethylamino)-5-hydroxy-2-methylhexan-3-yl)-2,6-diazaspiro[3.4]octan-6-yl)-1,2,4-triazin-6-yl)oxy)-5-fluoro-N,N-diisopropylbenzamide fumarate], the IC50 stood at 5.42 nM.

Molecule `CCN(C(=O)c1cc(F)ccc1Oc1nnc(OC)nc1N1CCC2(C1)CN([C@H](CCCN(C)CCOC)C(C)C)C2)C(C)C` [Compound 416, (R)-N-ethyl-5-fluoro-N-isopropyl-2-((3-methoxy-5-(2-(6-((2-methoxyethyl)(methyl)amino)-2-methylhexan-3-yl)-2,6-diazaspiro[3.4]octan-6-yl)-1,2,4-triazin-6-yl)oxy)benzamide formate] displayed an IC50 of about 0.035 nM.

In the case of `CCN(C(=O)c1cc(F)ccc1Oc1nncnc1N1CCC2(C1)CN([C@@H](C[C@H](O)CN(C)C(C)C)C(C)C)C2)C(C)C` (single isomer, unassigned) [Compound 324, N-ethyl-5-fluoro-2-((5-(2-((3*S,5*S)-5-hydroxy-6-(isopropyl(methyl)amino)-2-methylhexan-3-yl)-2,6-diazaspiro[3.4]octan-6-yl)-1,2,4-triazin-6-yl)oxy)-N-isopropylbenzamide fumarate], the IC50 was determined as 18.4 nM.

As to `CCN(C(=O)c1cc(F)ccc1Oc1nncnc1N1CCC2(C1)CN([C@@H](C[C@H](C)CN(C)CCOC)C(C)C)C2)C(C)C` (single isomer, unassigned) [Compound 243, N-ethyl-5-fluoro-N-isopropyl-2-((5-(2-((3*S,5*S)-6-((2-methoxyethyl)(methyl)amino)-2,5-dimethylhexan-3-yl)-2,6-diazaspiro[3.4]octan-6-yl)-1,2,4-triazin-6-yl)oxy)benzamide fumarate], the IC50 came out at 7.39 nM.

`CCN(C(=O)c1cc(F)ccc1Oc1nncnc1N1CCC2(C1)CN([C@@H](C[C@@H](CN(C)C)OC)C(C)C)C2)C(C)C` (single isomer, unassigned) [Compound 377, 2-((5-(2-((3*S,5*R)-6-(dimethylamino)-5-methoxy-2-methylhexan-3-yl)-2,6-diazaspiro[3.4]octan-6-yl)-1,2,4-triazin-6-yl)oxy)-N-ethyl-5-fluoro-N-isopropylbenzamide fumarate] returned an IC50 of 15.4 nM.

In the case of `CCN(C(=O)c1cc(F)ccc1Oc1nncnc1N1CCC2(C1)CN([C@@H](C[C@H](CN(C)C)OC)C(C)C)C2)C(C)C` (single isomer, unassigned) [Compound 378, 2-((5-(2-((3*S,5*R)-6-(dimethylamino)-5-methoxy-2-methylhexan-3-yl)-2,6-diazaspiro[3.4]octan-6-yl)-1,2,4-triazin-6-yl)oxy)-N-ethyl-5-fluoro-N-isopropylbenzamide fumarate], the IC50 is 27.3 nM.

In turn, `CCN(C)C[C@@H](C[C@@H](C(C)C)N1CC2(CCN(c3ncnnc3Oc3ccc(F)cc3C(=O)N(CC)C(C)C)C2)C1)OC` (single isomer, unassigned) [Compound 380, N-ethyl-2-((5-(2-((3*S,5*R)-6-(ethyl(methyl)amino)-5-methoxy-2-methylhexan-3-yl)-2,6-diazaspiro[3.4]octan-6-yl)-1,2,4-triazin-6-yl)oxy)-5-fluoro-N-isopropylbenzamide] had an IC50 of 40.5 nM.

Turning to `CCCN(C)C[C@@H](O)C[C@@H](C(C)C)N1CC2(CCN(c3ncnnc3Oc3ccc(F)cc3C(=O)N(CC)C(C)C)C2)C1` (single isomer, unassigned) [Compound 387, N-ethyl-5-fluoro-2-((5-(2-((3*S,5*S)-5-hydroxy-2-methyl-6-(methyl(propyl)amino)hexan-3-yl)-2,6-diazaspiro[3.4]octan-6-yl)-1,2,4-triazin-6-yl)oxy)-N-isopropylbenzamide fumarate], the IC50 is 9.52 nM.

The molecule `COCCNCCC[C@@H](C(C)C)N1CC2(CCN(c3ncnnc3Oc3ccc(F)cc3C(=O)N(C(C)C)C(C)C)C2)C1` (single isomer, unassigned) [Compound 100, (*S)-5-fluoro-N,N-isopropyl-2-((5-(2-(6-((2-methoxyethyl)amino)-2-methylhexan-3-yl)-2,6-diazaspiro[3.4]octan-6-yl)-1,2,4-triazin-6-yl)oxy)benzamide oxalate] registered an IC50 of 2.05 nM.

`CCN(CC)C[C@@H](O)C[C@@H](C(C)C)N1CC2(CCN(c3ncnnc3Oc3ccc(F)cc3C(=O)N(CC)C(C)C)C2)C1` (single isomer, unassigned) [Compound 335, 2-((5-(2-((3*S,5*S)-6-diethylamino)-5-hydroxy-2-methylhexan-3-yl)-2,6-diazaspiro[3.4]octan-6-yl)-1,2,4-triazin-6-yl)oxy)-N-ethyl-5-fluoro-N-isopropylbenzamide fumarate] showed an IC50 of 5.49 nM.

As to `CCN(C(=O)c1cc(F)ccc1Oc1nncnc1N1CCC2(C1)CN([C@@H](CCCCN(C)C)C(C)C)C2)C(C)C` (single isomer, unassigned) [Compound 212], the IC50 was determined as 9.45 nM.

In turn, `COCCN(C)CCC[C@@H](C(C)C)N1CC2(CCN(c3ccnnc3Oc3ccc(F)cc3C(=O)N(C(C)C)C(C)C)C2)C1` (single isomer, unassigned) [Compound 89, (*S)-5-fluoro-N,N-isopropyl-2-((4-(2-(6-((2-methoxyethyl)(methyl)amino)-methylhexan-3-yl)-2,6-diazaspiro[3.4]octan-6-yl)pyridazin-3-yl)oxy)benzamide oxalate] yielded an IC50 of 3.79 nM.

The molecule `COCCN(C)CCC[C@H](C(C)C)N1CC2(CCN(c3ncnnc3Oc3ccc(F)cc3C(=O)N(C)C(C)C)C2)C1` [Compound 415, (R)-5-fluoro-N-isopropyl-2-((5-(2-(6-((2-methoxyethyl)(methyl)amino)-2-methylhexan-3-yl)-2,6-diazaspiro[3.4]octan-6-yl)-1,2,4-triazin-6-yl)oxy)-N-methylbenzamide] showed an IC50 of 0.084 nM.

The test system of the next experiment is MEIS1 mRNA. The experiment is described as follows: MEIS1 mRNA expression assay (Quantigene Singleplex) in MOLM14 cells.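 Also: MEIS1 transcript levels read by probe hybridization and normalized to RPL28 mRNA, with IC50 fitted to fold changes across a rising compound concentration series.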 The format is cell-based, human. As to conditions: Homo sapiens, MOLM-14, 48 h, 48 hours incubation.
The molecule `CCN(C(=O)c1cc(F)ccc1Oc1nnc(OC)nc1N1CCC2(C1)CN([C@H](CCCN)C(C)C)C2)C(C)C` [Compound 407, (R)-2-((5-(2-(6-amino-2-methylhexan-3-yl)-2,6-diazaspiro[3.4]octan-6-yl)-3-methoxy-1,2,4-triazin-6-yl)oxy)-N-ethyl-5-fluoro-N-isopropylbenzamide formate] came in with an IC50 of 380 nM.

As to `CCN(CC)C[C@@H](O)C[C@H](C(C)C)N1CC2(CCN(c3ncnnc3Oc3ccc(F)cc3C(=O)N(CC)C(C)C)C2)C1` (single isomer, unassigned) [Compound 337, 2-(5-(2-((3*R,5*S)-6-(diethylamino)-5-hydroxy-2-methylhexan-3-yl)-2,6-diazaspiro[3.4]octan-6-yl)-1,2,4-triazin-6-yl)oxy)-N-ethyl-5-fluoro-N-isopropylbenzamide fumarate], the IC50 was over 1000 nM.

In the case of `CCN(C(=O)c1cc(F)ccc1Oc1nnc(OC)nc1N1CCC2(C1)CN([C@H](CCCN(C)CCOC)C(C)C)C2)C(C)C` [Compound 416, (R)-N-ethyl-5-fluoro-N-isopropyl-2-((3-methoxy-5-(2-(6-((2-methoxyethyl)(methyl)amino)-2-methylhexan-3-yl)-2,6-diazaspiro[3.4]octan-6-yl)-1,2,4-triazin-6-yl)oxy)benzamide formate], the IC50 stood at 49 nM.

The values above are taken from patent US12473295B2, “Substituted straight chain spiro derivatives” (Janssen Pharmaceutica NV, priority 2019, dated 2025).
